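Each compound was tested at five concentrations against cells in 96-well plates for 48 hours. At the TGI there is no net growth.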
Assays:
Assay in all cases: NCI-60 cell line screen, 48 h
NCI/ADR-RES ovarian = tested on: NCI/ADR-RES ovarian
SR leukemia = tested on: SR leukemia
RXF 393 renal = tested on: RXF 393 renal
LOX IMVI melanoma = tested on: LOX IMVI melanoma
NCI-H226 lung = tested on: NCI-H226 lung
OVCAR-5 ovarian = tested on: OVCAR-5 ovarian
EKVX NSCLC = tested on: EKVX NSCLC
MDA-N = tested on: MDA-N
HS 578T breast = tested on: HS 578T breast
M14 melanoma = tested on: M14 melanoma
NCI-H522 lung = tested on: NCI-H522 lung
OVCAR-8 ovarian = tested on: OVCAR-8 ovarian
MALME-3M melanoma = tested on: MALME-3M melanoma
SK-MEL-28 melanoma = tested on: SK-MEL-28 melanoma
SN12C renal = tested on: SN12C renal
HCT-116 colon = tested on: HCT-116 colon
HT29 colon = tested on: HT29 colon
SNB-19 CNS = tested on: SNB-19 CNS
CAKI-1 renal = tested on: CAKI-1 renal
MOLT-4 leukemia = tested on: MOLT-4 leukemia
IGROV1 ovarian = tested on: IGROV1 ovarian
KM12 colon = tested on: KM12 colon
SF-295 CNS = tested on: SF-295 CNS
HCT-15 colon = tested on: HCT-15 colon
SK-MEL-5 melanoma = tested on: SK-MEL-5 melanoma
SF-539 CNS = tested on: SF-539 CNS
786-0 renal = tested on: 786-0 renal
BT-549 breast = tested on: BT-549 breast
OVCAR-4 ovarian = tested on: OVCAR-4 ovarian
MDA-MB-435 = tested on: MDA-MB-435
HOP-62 NSCLC = tested on: HOP-62 NSCLC
SF-268 CNS = tested on: SF-268 CNS
HOP-92 NSCLC = tested on: HOP-92 NSCLC
UO-31 renal = tested on: UO-31 renal
HL-60(TB) leukemia = tested on: HL-60(TB) leukemia
SK-OV-3 ovarian = tested on: SK-OV-3 ovarian
NCI-H23 lung = tested on: NCI-H23 lung
MCF7 breast = tested on: MCF7 breast
ACHN renal = tested on: ACHN renal
K-562 leukemia = tested on: K-562 leukemia
SNB-75 CNS = tested on: SNB-75 CNS
T-47D breast = tested on: T-47D breast
UACC-62 melanoma = tested on: UACC-62 melanoma
COLO 205 colon = tested on: COLO 205 colon
RPMI-8226 leukemia = tested on: RPMI-8226 leukemia
SW-620 colon = tested on: SW-620 colon
A549 NSCLC = tested on: A549 NSCLC
OVCAR-3 ovarian = tested on: OVCAR-3 ovarian
PC-3 prostate = tested on: PC-3 prostate
HCC-2998 colon = tested on: HCC-2998 colon
NCI-H460 lung = tested on: NCI-H460 lung
SK-MEL-2 melanoma = tested on: SK-MEL-2 melanoma
CCRF-CEM leukemia = tested on: CCRF-CEM leukemia
A498 renal = tested on: A498 renal
DU-145 prostate = tested on: DU-145 prostate
U251 CNS = tested on: U251 CNS
TK-10 renal = tested on: TK-10 renal
UACC-257 melanoma = tested on: UACC-257 melanoma
MDA-MB-231 breast = tested on: MDA-MB-231 breast

`C=CCOC(=O)CC[C@H](NC(=O)[C@@H](CCC(F)(F)F)Cc1ccc(O)cc1)C(=O)OCC=C` gave a TGI (NCI/ADR-RES ovarian) of over 100 µM, a TGI (SR leukemia) of over 100 µM and a TGI (RXF 393 renal) of over 100 µM. For the same molecule, the TGI (LOX IMVI melanoma) was over 100 µM, the TGI (NCI-H226 lung) was over 100 µM and the TGI (OVCAR-5 ovarian) was over 100 µM. The TGI (EKVX NSCLC) was 73.4 µM, the TGI (MDA-N) was over 100 µM and the TGI (HS 578T breast) was over 100 µM. For the same molecule, the TGI (M14 melanoma) was 42.6 µM, the TGI (NCI-H522 lung) was 52.7 µM and the TGI (OVCAR-8 ovarian) was over 100 µM. The TGI (MALME-3M melanoma) was 39.1 µM, the TGI (SK-MEL-28 melanoma) was 45.6 µM and the TGI (SN12C renal) was over 100 µM. It also gave a TGI (HCT-116 colon) of over 100 µM, a TGI (HT29 colon) of over 100 µM and a TGI (SNB-19 CNS) of over 100 µM. The TGI (CAKI-1 renal) was over 100 µM, the TGI (MOLT-4 leukemia) was 79.8 µM and the TGI (IGROV1 ovarian) was over 100 µM. The TGI (KM12 colon) was over 100 µM, the TGI (SF-295 CNS) was over 100 µM and the TGI (HCT-15 colon) was over 100 µM. The TGI (SK-MEL-5 melanoma) was 35 µM, the TGI (SF-539 CNS) was over 100 µM and the TGI (786-0 renal) was over 100 µM. The TGI (BT-549 breast) was over 100 µM, the TGI (OVCAR-4 ovarian) was over 100 µM and the TGI (MDA-MB-435) was 76 µM. For the same molecule, the TGI (HOP-62 NSCLC) was over 100 µM, the TGI (SF-268 CNS) was over 100 µM and the TGI (HOP-92 NSCLC) was over 100 µM. The TGI (UO-31 renal) was over 100 µM, the TGI (HL-60(TB) leukemia) was over 100 µM and the TGI (SK-OV-3 ovarian) was over 100 µM. It also gave a TGI (NCI-H23 lung) of over 100 µM, a TGI (MCF7 breast) of 48.2 µM and a TGI (ACHN renal) of over 100 µM. It also gave a TGI (K-562 leukemia) of over 100 µM, a TGI (SNB-75 CNS) of 77.2 µM and a TGI (T-47D breast) of 51.5 µM. The TGI (UACC-62 melanoma) was over 100 µM, the TGI (COLO 205 colon) was 40.7 µM and the TGI (RPMI-8226 leukemia) was 74.6 µM. It also gave a TGI (SW-620 colon) of over 100 µM and a TGI (A549 NSCLC) of over 100 µM.

Molecule `C/C=C(\C)c1cc(=O)c2c(C)cc3c(c2o1)C(=O)c1c(O)c(C2CC(C)(N(C)C)C(OC(C)=O)C(C)O2)cc(C2CC(N(C)C)C(O)C(C)O2)c1C3=O` (stereo not given) has a TGI (NCI/ADR-RES ovarian) of 9.16 µM, a TGI (RXF 393 renal) of 1.27 µM and a TGI (LOX IMVI melanoma) of 6.91 µM. It also gave a TGI (NCI-H226 lung) of 5.57 µM, a TGI (OVCAR-5 ovarian) of 15.5 µM and a TGI (EKVX NSCLC) of 5.38 µM. For the same molecule, the TGI (MDA-N) was 4.83 µM, the TGI (HS 578T breast) was 18.6 µM and the TGI (M14 melanoma) was 1.85 µM. It also gave a TGI (OVCAR-3 ovarian) of over 21 µM, a TGI (PC-3 prostate) of 7.83 µM and a TGI (NCI-H522 lung) of 1.16 µM. The TGI (OVCAR-8 ovarian) was over 17.5 µM, the TGI (MALME-3M melanoma) was 1.13 µM and the TGI (SK-MEL-28 melanoma) was 8.41 µM. It also gave a TGI (SN12C renal) of 8.81 µM, a TGI (HCT-116 colon) of 6.33 µM and a TGI (HT29 colon) of 6.75 µM. It also gave a TGI (SNB-19 CNS) of 10.9 µM, a TGI (CAKI-1 renal) of 5.1 µM and a TGI (HCC-2998 colon) of 2.32 µM. For the same molecule, the TGI (MOLT-4 leukemia) was over 15.2 µM, the TGI (IGROV1 ovarian) was 6.01 µM and the TGI (KM12 colon) was 6.49 µM. For the same molecule, the TGI (NCI-H460 lung) was 5.94 µM, the TGI (SF-295 CNS) was over 16.9 µM and the TGI (SK-MEL-2 melanoma) was 2.87 µM. It also gave a TGI (HCT-15 colon) of 12.2 µM, a TGI (SK-MEL-5 melanoma) of 1.59 µM and a TGI (SF-539 CNS) of 2.59 µM. For the same molecule, the TGI (786-0 renal) was 5.68 µM, the TGI (CCRF-CEM leukemia) was over 50 µM and the TGI (BT-549 breast) was 3.42 µM. It also gave a TGI (A498 renal) of 11.1 µM, a TGI (DU-145 prostate) of over 50 µM and a TGI (OVCAR-4 ovarian) of 10.2 µM. For the same molecule, the TGI (MDA-MB-435) was 3.45 µM, the TGI (HOP-62 NSCLC) was 6.45 µM and the TGI (SF-268 CNS) was 9.56 µM. It also gave a TGI (HOP-92 NSCLC) of 30.9 µM, a TGI (UO-31 renal) of 7.87 µM and a TGI (HL-60(TB) leukemia) of over 50 µM. The TGI (SK-OV-3 ovarian) was over 50 µM, the TGI (U251 CNS) was over 50 µM and the TGI (NCI-H23 lung) was over 11.9 µM. It also gave a TGI (TK-10 renal) of over 30 µM, a TGI (MCF7 breast) of 7.85 µM and a TGI (ACHN renal) of 10 µM. It also gave a TGI (K-562 leukemia) of over 50 µM, a TGI (SNB-75 CNS) of 7.33 µM and a TGI (UACC-257 melanoma) of 6.47 µM. The TGI (T-47D breast) was 38.2 µM, the TGI (UACC-62 melanoma) was 3.97 µM and the TGI (MDA-MB-231 breast) was 5.96 µM. The TGI (COLO 205 colon) was 3.05 µM, the TGI (RPMI-8226 leukemia) was over 50 µM and the TGI (SW-620 colon) was over 27.7 µM. For the same molecule, the TGI (A549 NSCLC) was over 50 µM.

Source: PubChem BioAssay (NCI)
